Assay results: US8759256B2, “Herbicide composition comprising herbicide compound in acid form and acidifying agent” (priority 2001, dated 2014)

How the values were obtained:
[1] = cited from earlier work; for pKas: Table 1, acidic herbicide; for pKa: imidazolinone acids
sunflower = test: greenhouse visual injury rating, Examples 9-10, sunflower; format: in vivo; settings: Two Week
Excerpt: (§1) Each treatment in the experiment was replicated three times. An untreated control was also included in the experiment.
(§2) These treatments were compared to PCC-1190 and PCC-1189 without the addition of an acidifying agent, a standard imidazolinone acid formulation (PURSUIT and SCEPTER), and an untreated control.
(§3) For the experiments, greenhouse flats 26 cm by 6 cm deep were filled with Metro Mix 350 potting soil. The soil was pre-wetted before filling the flats. Six furrows were pressed into the soil in each flat using a custom designed form. Corn, tame oats, velvet leaf (not used in Example 10), wheat, pinto beans, and sunflower were planted in each tray. One species was planted in each of the six rows in each flat. Five seeds were planted in each row of corn, pinto bean, and sunflower. Six seeds were planted in each row of tame oat and wheat. Because velvet leaf seeds were so small, the seeds were sprinkled in each row and the number of such seeds were not counted. Each flat was covered with 2 cm of Metro Mix 350 potting soil and placed in the greenhouse. Greenhouse conditions were 28/20 C day/night temperatures and 16/8 h day/night periods. Light was supplemented with 400 W sodium halide lights. The plants were allowed to germinate and grow in the greenhouse for 2 weeks and then treated. Treatments were mixed using serial dilutions. Each dilution reduced the herbicide rate by one half. All acidifying agents (e.g., PCC-I174, LI-136, sulfuric acid, and phosphoric acid) were calculated and mixed to provide acid concentrations of 0.9%.
(§4) At the time of treatment, crops were at the following stages: corn—2 to 3 lf, tame oat—2 to 3 lf, velvet leaf 2 if (not used in Example 10), pinto bean—2-3 lf, wheat—4 to 5 lf, and sunflower-2 lf. Plants were treated using a greenhouse track sprayer equipped with an 8001E nozzle and calibrated to deliver 140 L ha-1 at the height of the crop canopy. Each treatment was simultaneously applied to three trays of plants, one for each replicate. After treatment, the plants were left in the head house to dry and then transferred to the greenhouse. Plants in each treatment were evaluated visually for injury 1 week and 2 weeks after treatment.
(§5) The injury caused by the herbicide treatment was rated visually. […] All the plants of each species in each replication were given a single rating. A rating of 0=no injury—the plants look the same as the untreated. A rating of 100=dead—usually highly necrotic, brown and no chance of producing seed.
(§6) The ingredients of the herbicide compositions as applied are listed in the following tables, and were diluted with water and used at the rates indicated for herbicide ingredients and acidifying agents.

pinto bean = test: greenhouse visual injury rating, Examples 9-10, pinto bean; format: in vivo; settings: Two Week
Excerpt: as §1, §2, §3, §4, §5, §6

corn = test: greenhouse visual injury rating, Examples 9-10, corn; format: in vivo; settings: Two Week
Excerpt: as §1, §2, §3, §4, §5, §6

tame oat = test: greenhouse visual injury rating, Examples 9-10, tame oat; format: in vivo; settings: Two Week
Excerpt: as §1, §2, §3, §4, §5, §6

wheat = test: greenhouse visual injury rating, Examples 9-10, wheat; format: in vivo; settings: Two Week
Excerpt: as §1, §2, §3, §4, §5, §6

[2] = PCC-1189 0.031 LB AE/A + SULFURIC ACID 2 % V/V
[3] = PCC-1189 0.245 LB AE/A + SULFURIC ACID 2 % V/V
[4] = PCC-1189 0.49 LB AE/A + SULFURIC ACID 2 % V/V
[5] = PCC-1189 .0155 LB AE/A + SULFURIC ACID 2 % V/V
[6] = PCC-1189 .0613 LB AE/A + SULFURIC ACID 2 % V/V
[7] = PCC-1189 .1225 LB AE/A + SULFURIC ACID 2 % V/V
[8] = PCC-1189 0.031 LB AE/A + PHOSPHORIC ACID 2 % V/V
[9] = PCC-1189 0.245 3 AE/A + PHOSPHORIC ACID 2 V/V
[10] = PCC-1189 0.49 3 AE/A + PHOSPHORIC ACID 2 V/V
[11] = PCC-1189 .0155 LB AE/A + PHOSPHORIC ACID 2 % V/V
[12] = PCC-1189 .0613 LB AE/A + PHOSPHORIC ACID 2 % V/V
[13] = PCC-1189 .1225 LB AE/A + PHOSPHORIC ACID 2 % V/V

CCc1cnc(C2=NC(C)(C(C)C)C(=O)N2)c(C(=O)O)c1 (centres unmarked) [Imazethapyr]
pKas [1]: 3.9
pKa [1]: approximately 3.9

O=S(=O)(O)O [SULFURIC ACID]
injury rated visually (0=no injury, 100=dead), Sunflower (sunflower; [2]): 30.0
injury rated visually (0=no injury, 100=dead), Sunflower (sunflower; [3]): 60.0
injury rated visually (0=no injury, 100=dead), Sunflower (sunflower; [4]): 80.0
injury rated visually (0=no injury, 100=dead), Sunflower (sunflower; [5]): 30.0
injury rated visually (0=no injury, 100=dead), Sunflower (sunflower; [6]): 40.0
injury rated visually (0=no injury, 100=dead), Sunflower (sunflower; [7]): 40.0
injury rated visually (0=no injury, 100=dead), Pinto Bean (pinto bean; [2]): 10.0
injury rated visually (0=no injury, 100=dead), Pinto Bean (pinto bean; [3]): 20.0
injury rated visually (0=no injury, 100=dead), Pinto Bean (pinto bean; [4]): 30.0
injury rated visually (0=no injury, 100=dead), Pinto Bean (pinto bean; [5]): 10.0
injury rated visually (0=no injury, 100=dead), Pinto Bean (pinto bean; [6]): 0.0
injury rated visually (0=no injury, 100=dead), Pinto Bean (pinto bean; [7]): 10.0
injury rated visually (0=no injury, 100=dead), Corn (corn; [2]): 20.0
injury rated visually (0=no injury, 100=dead), Corn (corn; [3]): 20.0
injury rated visually (0=no injury, 100=dead), Corn (corn; [4]): 20.0
injury rated visually (0=no injury, 100=dead), Corn (corn; [5]): 10.0
injury rated visually (0=no injury, 100=dead), Corn (corn; [6]): 10.0
injury rated visually (0=no injury, 100=dead), Corn (corn; [7]): 10.0
injury rated visually (0=no injury, 100=dead), Tame Oat (tame oat; [2]): 0.0
injury rated visually (0=no injury, 100=dead), Tame Oat (tame oat; [3]): 0.0
injury rated visually (0=no injury, 100=dead), Tame Oat (tame oat; [4]): 10.0
injury rated visually (0=no injury, 100=dead), Tame Oat (tame oat; [5]): 0.0
injury rated visually (0=no injury, 100=dead), Tame Oat (tame oat; [6]): 0.0
injury rated visually (0=no injury, 100=dead), Tame Oat (tame oat; [7]): 0.0
injury rated visually (0=no injury, 100=dead), Wheat (wheat; [2]): 0.0
injury rated visually (0=no injury, 100=dead), Wheat (wheat; [3]): 0.0
injury rated visually (0=no injury, 100=dead), Wheat (wheat; [4]): 10.0
injury rated visually (0=no injury, 100=dead), Wheat (wheat; [5]): 0.0
injury rated visually (0=no injury, 100=dead), Wheat (wheat; [6]): 0.0
injury rated visually (0=no injury, 100=dead), Wheat (wheat; [7]): 0.0

O=C(O)CCCOc1ccc(Cl)cc1Cl [2,4-DB]
pKas [1]: 4.8

CC(C)C1(C)N=C(c2nc3ccccc3cc2C(=O)O)NC1=O (centres unmarked) [Imazaquin]
pKas [1]: 3.8
pKa [1]: approximately 3.8

Nc1c(Cl)c(Cl)nc(C(=O)O)c1Cl [Picloram]
pKas [1]: 2.3

O=P(O)(O)O [PHOSPHORIC ACID]
injury rated visually (0=no injury, 100=dead), Sunflower (sunflower; [8]): 50.0
injury rated visually (0=no injury, 100=dead), Sunflower (sunflower; [9]): 60.0
injury rated visually (0=no injury, 100=dead), Sunflower (sunflower; [10]): 50.0
injury rated visually (0=no injury, 100=dead), Sunflower (sunflower; [11]): 50.0
injury rated visually (0=no injury, 100=dead), Sunflower (sunflower; [12]): 40.0
injury rated visually (0=no injury, 100=dead), Sunflower (sunflower; [13]): 50.0
injury rated visually (0=no injury, 100=dead), Pinto Bean (pinto bean; [8]): 20.0
injury rated visually (0=no injury, 100=dead), Pinto Bean (pinto bean; [9]): 30.0
injury rated visually (0=no injury, 100=dead), Pinto Bean (pinto bean; [10]): 30.0
injury rated visually (0=no injury, 100=dead), Pinto Bean (pinto bean; [11]): 10.0
injury rated visually (0=no injury, 100=dead), Pinto Bean (pinto bean; [12]): 30.0
injury rated visually (0=no injury, 100=dead), Pinto Bean (pinto bean; [13]): 25.0
injury rated visually (0=no injury, 100=dead), Corn (corn; [8]): 10.0
injury rated visually (0=no injury, 100=dead), Corn (corn; [9]): 10.0
injury rated visually (0=no injury, 100=dead), Corn (corn; [10]): 20.0
injury rated visually (0=no injury, 100=dead), Corn (corn; [11]): 10.0
injury rated visually (0=no injury, 100=dead), Corn (corn; [12]): 15.0
injury rated visually (0=no injury, 100=dead), Corn (corn; [13]): 10.0
injury rated visually (0=no injury, 100=dead), Tame Oat (tame oat; [8]): 0.0
injury rated visually (0=no injury, 100=dead), Tame Oat (tame oat; [9]): 0.0
injury rated visually (0=no injury, 100=dead), Tame Oat (tame oat; [10]): 0.0
injury rated visually (0=no injury, 100=dead), Tame Oat (tame oat; [11]): 0.0
injury rated visually (0=no injury, 100=dead), Tame Oat (tame oat; [12]): 0.0
injury rated visually (0=no injury, 100=dead), Tame Oat (tame oat; [13]): 0.0
injury rated visually (0=no injury, 100=dead), Wheat (wheat; [8]): 0.0
injury rated visually (0=no injury, 100=dead), Wheat (wheat; [9]): 0.0
injury rated visually (0=no injury, 100=dead), Wheat (wheat; [10]): 0.0
injury rated visually (0=no injury, 100=dead), Wheat (wheat; [11]): 0.0
injury rated visually (0=no injury, 100=dead), Wheat (wheat; [12]): 0.0
injury rated visually (0=no injury, 100=dead), Wheat (wheat; [13]): 0.0

Imazamethbenz
pKas [1]: 2.9
pKa [1]: approximately 2.9
